SMILES strings stand for the structures.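 The compound was tested at five concentrations on cells cultured in 96-well plates, with a 48-hour exposure period. Abbreviation: GI50, concentration required for 50% inhibition of growth. TGI is the concentration that stops growth completely.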

The results in this text go back to PubChem BioAssay (NCI).

Test in all cases: NCI tumour cell line growth inhibition, 48 h
Assay [1] relates to 786-0 renal.
The test system of assay [2] is CCRF-CEM leukemia.
In assay [3] the test system is NCI-H226 lung.
Assay [4] relates to NCI-H23 lung.
Assay [5] has as its system NCI/ADR-RES ovarian.
Assay [6] concerns PC-3 prostate.
The subject of assay [7] is RXF 393 renal.
Assay [8] concerns SK-MEL-5 melanoma.
For assay [9], the system named is T-47D breast.
Assay [10] deals with UACC-257 melanoma.

In the case of `CC(C)N(Cc1ccccc1)S(=O)(=O)c1n[nH]c(C(C)(C)C)n1`, the TGI in assay [1], in [2], in assay [3], in assay [4], in assay [5] and in [6] was above 100 µM each time. In addition, the TGI in assay [7], in assay [8], in [9] and in assay [10] was above 100 µM each time.

In the case of `O=C(Nc1ccc(-c2ccnc(Nc3ccc(N4CCOCC4)cc3)n2)cc1)C1CCCN1` (stereo not given), the GI50 in [1] was 4.94 µM; in assay [2], 2.36 µM; in assay [3], 6.69 µM; in assay [4] it was 12.1 µM; in assay [5], 9.49 µM; in assay [6], 1.79 µM. For the same compound, the GI50 in assay [7] is 2.23 µM; in [8], 3.31 µM; in assay [9], 14.7 µM; in assay [10], 8.99 µM. Also, the TGI in [1] is 20.2 µM; in assay [2] it was 39.9 µM; in assay [3] it was 52.5 µM; in assay [4], 32.4 µM; in assay [5] it was 44.5 µM; in assay [6], 31.9 µM. Moreover, the TGI was found to be 9.36 µM in assay [7], 18.9 µM in assay [8], 38.7 µM in assay [9] and 22.8 µM in assay [10].
